Laboratory results as given in PubChem BioAssay (NCI).
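Test compounds were applied to cells in 96-well plates for 48 hours at 5 doses. TGI marks complete inhibition of growth.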

Key:
Assay in all cases: NCI anticancer screen, dose series, 48 h
KM12 colon = test system: KM12 colon
CAKI-1 renal = test system: CAKI-1 renal
M14 melanoma = test system: M14 melanoma
SK-MEL-28 melanoma = test system: SK-MEL-28 melanoma
HCC-2998 colon = test system: HCC-2998 colon
A549 NSCLC = test system: A549 NSCLC
HCT-116 colon = test system: HCT-116 colon
MDA-MB-435 = test system: MDA-MB-435
T-47D breast = test system: T-47D breast
MDA-MB-231 breast = test system: MDA-MB-231 breast
UACC-62 melanoma = test system: UACC-62 melanoma
SK-MEL-5 melanoma = test system: SK-MEL-5 melanoma
NCI-H522 lung = test system: NCI-H522 lung
HOP-62 NSCLC = test system: HOP-62 NSCLC
SW-620 colon = test system: SW-620 colon
MALME-3M melanoma = test system: MALME-3M melanoma
OVCAR-4 ovarian = test system: OVCAR-4 ovarian
MCF7 breast = test system: MCF7 breast
TK-10 renal = test system: TK-10 renal
MDA-N = test system: MDA-N
UACC-257 melanoma = test system: UACC-257 melanoma
OVCAR-3 ovarian = test system: OVCAR-3 ovarian
SNB-19 CNS = test system: SNB-19 CNS
A498 renal = test system: A498 renal
SK-MEL-2 melanoma = test system: SK-MEL-2 melanoma
SF-295 CNS = test system: SF-295 CNS
MOLT-4 leukemia = test system: MOLT-4 leukemia
SNB-75 CNS = test system: SNB-75 CNS
LOX IMVI melanoma = test system: LOX IMVI melanoma
RPMI-8226 leukemia = test system: RPMI-8226 leukemia
NCI-H226 lung = test system: NCI-H226 lung
BT-549 breast = test system: BT-549 breast
786-0 renal = test system: 786-0 renal
SN12C renal = test system: SN12C renal
K-562 leukemia = test system: K-562 leukemia
NCI/ADR-RES ovarian = test system: NCI/ADR-RES ovarian
OVCAR-8 ovarian = test system: OVCAR-8 ovarian
PC-3 prostate = test system: PC-3 prostate
SF-268 CNS = test system: SF-268 CNS
CCRF-CEM leukemia = test system: CCRF-CEM leukemia
NCI-H23 lung = test system: NCI-H23 lung
DU-145 prostate = test system: DU-145 prostate
ACHN renal = test system: ACHN renal
EKVX NSCLC = test system: EKVX NSCLC
HS 578T breast = test system: HS 578T breast
OVCAR-5 ovarian = test system: OVCAR-5 ovarian
SR leukemia = test system: SR leukemia
U251 CNS = test system: U251 CNS
HCT-15 colon = test system: HCT-15 colon
HL-60(TB) leukemia = test system: HL-60(TB) leukemia
UO-31 renal = test system: UO-31 renal
NCI-H460 lung = test system: NCI-H460 lung
RXF 393 renal = test system: RXF 393 renal
COLO 205 colon = test system: COLO 205 colon
IGROV1 ovarian = test system: IGROV1 ovarian
SK-OV-3 ovarian = test system: SK-OV-3 ovarian
HOP-92 NSCLC = test system: HOP-92 NSCLC
HT29 colon = test system: HT29 colon
SF-539 CNS = test system: SF-539 CNS

CCOC(=O)c1cc(-c2ccn(C(C)=O)c2)c(-c2cc(C)co2)[nH]1
TGI (KM12 colon): > 100 µM | TGI (CAKI-1 renal): > 100 µM | TGI (M14 melanoma): > 100 µM | TGI (SK-MEL-28 melanoma): > 100 µM | TGI (HCC-2998 colon): > 100 µM | TGI (A549 NSCLC): > 100 µM | TGI (HCT-116 colon): > 100 µM | TGI (MDA-MB-435): > 100 µM | TGI (T-47D breast): > 100 µM | TGI (MDA-MB-231 breast): > 100 µM | TGI (UACC-62 melanoma): > 100 µM | TGI (SK-MEL-5 melanoma): > 100 µM | TGI (NCI-H522 lung): > 100 µM | TGI (HOP-62 NSCLC): > 100 µM | TGI (SW-620 colon): > 100 µM | TGI (MALME-3M melanoma): > 100 µM | TGI (OVCAR-4 ovarian): > 100 µM | TGI (MCF7 breast): > 100 µM | TGI (TK-10 renal): > 100 µM | TGI (MDA-N): > 100 µM | TGI (UACC-257 melanoma): > 100 µM | TGI (OVCAR-3 ovarian): > 100 µM | TGI (SNB-19 CNS): > 100 µM | TGI (A498 renal): > 100 µM | TGI (SK-MEL-2 melanoma): > 100 µM | TGI (SF-295 CNS): > 100 µM | TGI (MOLT-4 leukemia): > 100 µM | TGI (SNB-75 CNS): > 100 µM | TGI (LOX IMVI melanoma): > 100 µM | TGI (RPMI-8226 leukemia): > 100 µM | TGI (NCI-H226 lung): > 100 µM | TGI (BT-549 breast): > 100 µM | TGI (786-0 renal): > 100 µM | TGI (SN12C renal): > 100 µM | TGI (K-562 leukemia): > 100 µM | TGI (NCI/ADR-RES ovarian): > 100 µM | TGI (OVCAR-8 ovarian): > 100 µM | TGI (PC-3 prostate): > 100 µM | TGI (SF-268 CNS): > 100 µM | TGI (CCRF-CEM leukemia): > 100 µM | TGI (NCI-H23 lung): > 100 µM | TGI (DU-145 prostate): > 100 µM | TGI (ACHN renal): > 100 µM | TGI (EKVX NSCLC): > 100 µM | TGI (HS 578T breast): > 100 µM | TGI (OVCAR-5 ovarian): > 100 µM | TGI (SR leukemia): > 100 µM | TGI (U251 CNS): > 100 µM | TGI (HCT-15 colon): > 100 µM | TGI (HL-60(TB) leukemia): > 100 µM | TGI (UO-31 renal): > 100 µM | TGI (NCI-H460 lung): > 100 µM | TGI (RXF 393 renal): > 100 µM | TGI (COLO 205 colon): > 100 µM | TGI (IGROV1 ovarian): > 100 µM

COc1ccc(N2C(=O)/C(=C/c3ccc(N(CCC#N)CCC#N)cc3)N=C2c2ccccc2)c(OC)c1
TGI (KM12 colon): > 100 µM | TGI (CAKI-1 renal): > 100 µM | TGI (SK-OV-3 ovarian): > 100 µM | TGI (M14 melanoma): > 100 µM | TGI (HOP-92 NSCLC): 68.9 µM | TGI (SK-MEL-28 melanoma): > 100 µM | TGI (HCC-2998 colon): > 100 µM | TGI (HCT-116 colon): > 100 µM | TGI (MDA-MB-435): > 100 µM | TGI (T-47D breast): 69.5 µM | TGI (MDA-MB-231 breast): > 100 µM | TGI (UACC-62 melanoma): > 100 µM | TGI (SK-MEL-5 melanoma): > 100 µM | TGI (NCI-H522 lung): 74.1 µM | TGI (SW-620 colon): > 100 µM | TGI (MALME-3M melanoma): > 100 µM | TGI (OVCAR-4 ovarian): > 100 µM | TGI (MCF7 breast): > 100 µM | TGI (TK-10 renal): > 100 µM | TGI (MDA-N): > 100 µM | TGI (HT29 colon): > 100 µM | TGI (UACC-257 melanoma): > 100 µM | TGI (OVCAR-3 ovarian): > 100 µM | TGI (SNB-19 CNS): > 100 µM | TGI (SF-295 CNS): > 100 µM | TGI (SF-539 CNS): > 100 µM | TGI (MOLT-4 leukemia): > 100 µM | TGI (SNB-75 CNS): > 100 µM | TGI (RPMI-8226 leukemia): > 100 µM | TGI (NCI-H226 lung): > 100 µM | TGI (BT-549 breast): > 100 µM | TGI (786-0 renal): > 100 µM | TGI (SN12C renal): > 100 µM | TGI (K-562 leukemia): 87 µM | TGI (NCI/ADR-RES ovarian): > 100 µM | TGI (OVCAR-8 ovarian): > 100 µM | TGI (SF-268 CNS): > 100 µM | TGI (CCRF-CEM leukemia): 74.9 µM | TGI (NCI-H23 lung): > 100 µM | TGI (DU-145 prostate): > 100 µM | TGI (ACHN renal): > 100 µM | TGI (EKVX NSCLC): > 100 µM | TGI (HS 578T breast): > 100 µM | TGI (OVCAR-5 ovarian): > 100 µM | TGI (SR leukemia): 60.3 µM | TGI (U251 CNS): > 100 µM | TGI (HCT-15 colon): > 100 µM | TGI (HL-60(TB) leukemia): > 100 µM | TGI (UO-31 renal): > 100 µM | TGI (NCI-H460 lung): > 100 µM | TGI (COLO 205 colon): > 100 µM | TGI (IGROV1 ovarian): > 100 µM
